Here are results for 15 compounds from publication PMC9805685, “Isolation, bioassay and 3D-QSAR analysis of 8-isopentenyl flavonoids from Epimedium sagittatum maxim. as PDE5A inhibitors” (Chinese Medicine, 2022).

Molecules are shown by their SMILES. “And” between values parts separate entries of the source, which are not always exact repeats. Identical values can stand only once. Like-named read-outs stand apart in the source and are kept apart here.

Test [1] concerns cytoplasmic calcium in CCSMCs. The experiment in a line: Fluorescent staining of calcium (Fluo-4AM) in CCSMCs. Format: cell-based, rat. As to conditions: for fluorescence intensity of cytoplasmic calcium in CCSMCs: 10 uM, 30 min, Fluo-4 AM. From the text:
(§1) Male Sprague–Dawley (SD) rats (180–220 g) were purchased from Shanghai SLAC Laboratory Animal Co., Ltd. This experiment protocol was approved by the standardizing laboratory animal ethical review of Shanghai University of Traditional Chinese Medicine. After removal of the corpus spongiosum, subcutaneous tissue and deep fascia of penises of SD rats, the corpus cavernosum tissue was cut into small pieces of less than 2mm^3 and digested with 0.5% collagenase I and 20% fetal bovine serum (PFES) in DMEM for 4 h. The cell suspensions were collected by mesh filtration and centrifugation, and cultured in DMEM containing 20% PFES and 1 × antibiotics at 37 °C in a humidified atmosphere with 5% CO2. After 24 h culture, spindle CCSMCs attached to the culture dish. The medium was replaced with DMEM containing 10% PFES when CCSMCs reached 70% confluence.
CCSMCs were cultured in 6-well plate at a density of 100,000/well for 48 h. Then cells were stained by Fluo-4AM for 30 min prior to […] 1 ~ 3 exposure for 30 min in the presence or absence of 10 μM Rp-8-Br-cGMPS (the protein kinase G inhibitor). After PBS rinse, the cytosolic calcium was observed by fluorescence microscope.

In test [2] the target is T1, PDE5A1 (Homo sapiens, UniProt O76074). The experiment in a line: CoMFA 3D-QSAR model prediction of PDE5A1 activity. As to conditions: EA minus PA. As for the experimental part:
(§2) All molecular modeling and calculations were performed by the Sybyl program package. The structures of all compounds were constructed using the Sketch Molecule module. Structural energy minimization was carried out using the standard Tripos molecular mechanics force field and Gasteiger-Huckle charge, with the convergence criterion set at 0.005 kcal/(Å·mol) and the max iterations for the minimization set to 10,000.
The 3D cubic lattice region was created automatically and the grid spacing was set at 1.7 Å in the x, y, and z directions. A sp^3 carbon atom with + 1 net charge was taken as the probe atom and steric and electrostatic interactions were calculated by using the Tripos force field. A cutoff of 30 kcal/mol was adopted in calculating energies. With standard options for scaling of variables, the regression analysis was carried out using partial least squares (PLS) method. The cross-validation with Leave-One-Out (LOO) option was carried out to obtain the optimum number of components (ONC).The final model (non-cross-validated conventional analysis) was developed with the optimum number of components. Region focusing is an advanced strategy that improves prediction ability of the initial built CoMFA model. CoMFA region focusing method refines a model by increasing the weights of the lattice points. StDev × coefficient values were used as weights.

The target in test [3] is T1, PDE5A1. The test is described as follows: PDE5A1 inhibition assay, enzyme reaction with HPLC detection of cGMP. The class given is biochemical. Particulars: 0.15 µg/mL PDE5A1, 7.5 µg/mL cGMP, 90 min at 35 ℃. As for the experimental part:
50 μL analytes were injected and separated on the C18 5 μm column with a flow rate of 1 mL/min at 30 °C column temperature. The mobile phase consisted of methanol and 0.05 mol/L potassium dihydrogen phosphate (10:90, V/V).
All components for assay were diluted in assay buffer which contained 100 mM MgCl2 and 50 mM Tris–HCl (pH 8.0). The compounds were dissolved in DMSO and then further diluted to the desired concentration with assay buffer. 30 μL PDE5A1 solution and 30 μL compound solution were mixed at room temperature and incubated for 5 min, followed by addition of with 30 μL cGMP solution, and the reaction was carried out at 35 °C for 90 min. After the assay, each vial was incubated in 100 °C boiling water for 5 min to inactivate the PDE5A1 activity, and then was cooled to be detected with HPLC. No PDE5A1 was used as the positive control, and DMSO was used as the negative control. Percentage inhibition was calculated using the peak area of HPLC with the following formula.
For dose–response experiments, the PDE5A1 inhibitors were diluted to 7 concentrations series with fourfold gradient. Two individual operations were performed on different dates as the repetition.
For developing the screening method for PDE5A1 inhibitors, the in vitro enzyme reaction and HPLC detection were combined. […] The concentrations of enzyme and substrate are important parameters in the inhibitor screening assay.

A further test concerns cGMP level of CCSMCs. The experiment in a line: cGMP assay in CCSMCs by ELISA. Particulars: 10 μM, 48 h. Format: cell-based, rat.
Excerpt: as §1
CCSMCs were seeded in 6-well plate at a density of 100,000/well for 24 h, and then were treated with 10 μM 1 ~ 3 for 48 h. The cells were lysed by 0.1 M hydrochloric acid with 200 μl per well for 20 min incubation, then the supernatant was collected and determined the cGMP content by ELISA.

Test [4] concerns the target T1, PDE5A1. The experiment in a line: CoMSIA 3D-QSAR model prediction of PDE5A1 activity. Particulars: EA minus PA. As for the experimental part: as §2
Although CoMSIA is similar to CoMFA, CoMSIA not only computes the steric and electrostatic fields, but also calculates additional hydrophobic, hydrogen-bond donor, and hydrogen-bond acceptor fields. CoMSIA descriptors were calculated with the same lattice box, grid spacing and probe atom as that used for the CoMFA calculations. In CoMSIA analysis, the five different descriptor fields are not totally independent from each other. Given that the size of dataset, we decided to use three of five fields as the descriptors.

Test [5] has as its target T1, PDE5A1. As to conditions: converted from literature IC50; cited from earlier work.

As to `COc1ccc(-c2oc3c(CC=C(C)C)c(O[C@@H]4O[C@H](CO)[C@@H](O)[C@H](O)[C@H]4O)cc(O)c3c(=O)c2O[C@@H]2O[C@@H](C)[C@H](O)[C@@H](O)[C@H]2O)cc1` [Compound 1, icariin], the “fluorescence intensity of cytoplasmic calcium in CCSMCs” value in test [1] is listed as “decrease cytoplasmic Ca^2+”. Besides, on PDE5A1 [2], the CoMFA residual is reported as 0.034. At PDE5A1 [3] (PDE5A1 (IC50 ± SD)), the IC50 is 8.28 µM and 8.27 µM. Moreover, the “cGMP level of CCSMCs” value in the test on cGMP level of CCSMCs is listed as “increase cGMP level”.

Take `COc1ccc(-c2oc3c(CC=C(C)C)c(O)cc(O)c3c(=O)c2OC2OC(C)C(O)C(O)C2OC2OC(C)C(O)C(O)C2O)cc1` (centres unmarked) [Compound 2, 2-O"-rhamnosylicaridide II]: the “fluorescence intensity of cytoplasmic calcium in CCSMCs” value in test [1] is “decrease cytoplasmic Ca^2+”. At PDE5A1 [2], the CoMFA residual is on record as 0.015. Moreover, the IC50 on PDE5A1 [3] (read-out: PDE5A1 (IC50 ± SD)) came to 3.23 µM. Further, the “cGMP level of CCSMCs” value in the test with cGMP level of CCSMCs is listed as “increase cGMP level”.

Turning to `COc1ccc(-c2oc3c(CC=C(C)C)c(O)cc(O)c3c(=O)c2O[C@@H]2O[C@@H](C)[C@H](O)[C@@H](O)[C@H]2O)cc1` [Compound 3, baohuoside I], in test [1], the “fluorescence intensity of cytoplasmic calcium in CCSMCs” value is listed as “decrease cytoplasmic Ca^2+”. Moreover, the IC50 at PDE5A1 [3] (read-out: PDE5A1 (IC50 ± SD)) was 5.47 µM and 5.48 µM. Besides, the CoMSIA residual at PDE5A1 [4] is 0.013. Further, the “cGMP level of CCSMCs” value with cGMP level of CCSMCs is “increase cGMP level”.

Turning to `COc1ccc(-c2oc3c(CC=C(C)C)c(OC4OC(CO)C(O)C(O)C4O)cc(O)c3c(=O)c2OC2OC(C)C(O)C(O)C2OC2OC(CO)C(O)C(O)C2O)cc1` (centres unmarked) [Compound 4, epimedin A], at PDE5A1 [3] (read-out: PDE5A1 (IC50 ± SD)), the IC50 came out at 409 ± 31.4 µM.

`COc1ccc(-c2oc3c(CC=C(C)C)c(OC4OC(CO)C(O)C(O)C4O)cc(O)c3c(=O)c2OC2OC(C)C(O)C(O)C2OC2OCC(O)C(O)C2O)cc1` (centres unmarked) [Compound 5, epimedin B]: the CoMFA residual at PDE5A1 [2] is reported as 0.032. Also, the half-maximal inhibitory concentration (IC50) on PDE5A1 [3] (read-out: PDE5A1 (IC50 ± SD)) came out at 358 ± 34.2 µM.

Regarding `COc1ccc(-c2oc3c(CC=C(C)C)c(OC4OC(CO)C(O)C(O)C4O)cc(O)c3c(=O)c2OC2OC(C)C(O)C(O)C2OC2OC(C)C(O)C(O)C2O)cc1` (centres unmarked) [Compound 6, epimedin C], the IC50 on PDE5A1 [3] (read-out: PDE5A1 (IC50 ± SD)) worked out at 682 µM. Also, the CoMSIA residual at PDE5A1 [4] is 0.037.

As for `COc1ccc(-c2oc3c(CC=C(C)C)c(O)cc(O)c3c(=O)c2O)cc1` [Compound 7], on PDE5A1 [2], the CoMFA residual is recorded as 0.105. Also, at PDE5A1 [4], the CoMSIA residual is given as 0.058.

As for `COc1ccc(-c2oc3c(CC=C(C)C)c(OCCO)cc(O)c3c(=O)c2OC2OC(C)C(O)C(O)C2O)cc1` (centres unmarked) [Compound 8], the CoMSIA residual at PDE5A1 [4] was 0.000. For the same compound, at PDE5A1 [5], the “pIC50 (-logIC50), experimental activity (EA)” value (“pIC50 (-logIC50)” for short) was 6.444.

Take `COc1ccc(C(=O)/C=C\c2cc(OC)c(OC)cc2OC)c(OC)c1` [Compound 10]: the CoMFA residual at PDE5A1 [2] was 0.296. For the same compound, the CoMSIA residual on PDE5A1 [4] was 0.562. Further, on PDE5A1 [5], the “pIC50 (-logIC50)” value is listed as 5.745.

Take `COc1ccc(/C=C/C(=O)c2c(OCc3ccccc3)cc(OC)c(OC)c2OC)cc1OC` [Compound 12]: the “pIC50 (-logIC50)” value at PDE5A1 [5] is reported as 5.229.

Consider `COc1ccc(OC)c(C(=O)/C=C/c2ccc(OC)c(OC)c2)c1` [Compound 13], for which the “pIC50 (-logIC50)” value on PDE5A1 [5] was 5.155.

In the case of `COc1cccc(/C=C/C(=O)c2c3c(c(OC)c4c2OCO4)CN(C)CC3)c1` [Compound 14], the CoMFA residual at PDE5A1 [2] was 0.06. For the same compound, the CoMSIA residual at PDE5A1 [4] is 0.025. Also, the “pIC50 (-logIC50)” value on PDE5A1 [5] is listed as 5.208.

Turning to `CCCOc1ccccc1-c1nc2n[nH]nc2c(=O)[nH]1` [Compound 17], the CoMSIA residual on PDE5A1 [4] is 0.001.

For `Nc1nc2c(nc(Br)n2[C@@H]2O[C@@H]3COP(O)(=S)O[C@H]3[C@H]2O)c(=O)[nH]1` (some centres unmarked) [Rp-8-Br-cGMPS, reference compound], the “effect on calcium down-regulation by 1 ~ 3 in CCSMCs” value in test [1] (10 μM Rp-8-Br-cGMPS together with 1 ~ 3, 30 min) is reported as “blocked the down-regulated calcium levels”.

For the compound `CCCc1nn(C)c2c(=O)[nH]c(-c3cc(S(=O)(=O)N4CCN(C)CC4)ccc3OCC)nc12` [Sildenafil, sildenafil], the CoMFA residual at PDE5A1 [2] is 0.068.
